Active and inactive are the calls of the source. The calls are words filed in the database; no cut-off is given here.
Assays:
NIH-H = assay: Inhibition of inhibit anchorage-independent growth of […] NIH-H cells in soft agar by colony forming assay; format: functional, cell-based
[1] = target: Protein farnesyltransferase (Homo sapiens, UniProt P49354+P49356); assay: Inhibition of FTase (unknown origin) assessed as transfer of [H3]farnesyl from [H3]farnesyl pyrophosphate to trichloroacetic acid-precipitable HaRas-CVLS; format: protein-complex assay
[2] = AUC in monkey at 25 mg/kg, po; format: ADME, organism-based, Macaca mulatta; set-up: dose 25 mg/kg, route oral; settings: rhesus monkey, plasma
Mus musculus [3] = assay: Antitumor activity in wap-ras transgenic mouse assessed as tumor growth inhibition at 3 mg/kg bid for 4 weeks; format: functional, organism-based; set-up: dose 3 mg/kg
Cytochrome P450 3A4 = Cytochrome P450 3A4 (Homo sapiens, UniProt P08684); assay: Inhibition of CYP3A4 (unknown origin); format: ADME
Sequence of Cytochrome P450 3A4 (P08684 whole entry): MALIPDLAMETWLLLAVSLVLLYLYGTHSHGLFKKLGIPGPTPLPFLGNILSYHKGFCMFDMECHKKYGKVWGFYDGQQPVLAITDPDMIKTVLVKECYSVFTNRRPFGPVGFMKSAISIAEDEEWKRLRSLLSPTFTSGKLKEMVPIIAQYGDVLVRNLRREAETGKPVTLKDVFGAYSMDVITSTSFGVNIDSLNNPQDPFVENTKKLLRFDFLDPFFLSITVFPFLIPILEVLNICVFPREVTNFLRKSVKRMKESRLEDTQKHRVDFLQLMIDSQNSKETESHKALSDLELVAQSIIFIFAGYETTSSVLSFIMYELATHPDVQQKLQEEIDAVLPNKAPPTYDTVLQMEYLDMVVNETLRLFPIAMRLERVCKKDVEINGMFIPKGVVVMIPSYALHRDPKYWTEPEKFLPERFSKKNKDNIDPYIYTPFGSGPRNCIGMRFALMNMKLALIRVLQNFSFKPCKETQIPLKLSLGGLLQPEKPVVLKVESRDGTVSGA

[4] = Oral bioavailability in dog at 5 mg/kg; format: ADME, organism-based, Canis lupus familiaris; settings: in vivo
Mus musculus [5] = assay: Antitumor activity in wap-ras transgenic mouse assessed as tumor growth inhibition and tumor regression administered bid for 4 weeks; format: functional, organism-based
[6] = AUC in mouse at 25 mg/kg, po; format: ADME, organism-based; set-up: dose 25 mg/kg, route oral; settings: plasma
Mus musculus [7] = assay: Toxicity in wap-ras transgenic mouse assessed as change in body weight at 3 to 40 mg/kg bid for 4 weeks; format: organism-based; set-up: dose 3-40 mg/kg; settings: in vivo, 672 h
Mus musculus [8] = assay: Antitumor activity in wap-ras transgenic mouse assessed as tumor stasis at 10 mg/kg bid for 4 weeks; format: functional, organism-based; set-up: dose 10 mg/kg
[9] = Cmax in monkey at 25 mg/kg, po; format: ADME, organism-based, Macaca mulatta; set-up: dose 25 mg/kg, route oral; settings: rhesus monkey, in vivo
[10] = Cmax in dog at 25 mg/kg, po; format: ADME, organism-based, Canis lupus familiaris; set-up: dose 25 mg/kg, route oral; settings: in vivo
Mus musculus [11] = assay: Antitumor activity in wap-ras transgenic mouse assessed as tumor regression at 25 to 40 mg/kg bid for 4 weeks; format: functional, organism-based
[12] = Oral bioavailability in rat at 10 mg/kg; format: ADME, organism-based; settings: in vivo
[13] = AUC in rat at 10 mg/kg, po; format: ADME, organism-based; set-up: dose 10 mg/kg, route oral; settings: plasma
[14] = Oral bioavailability in mouse at 25 mg/kg; format: ADME, organism-based; settings: in vivo
[15] = Cmax in rat at 10 mg/kg, po; format: ADME, organism-based; set-up: dose 10 mg/kg, route oral; settings: in vivo
[16] = Cmax in mouse at 25 mg/kg, po; format: ADME, organism-based; set-up: dose 25 mg/kg, route oral; settings: in vivo
[17] = AUC in dog at 25 mg/kg, po; format: ADME, organism-based, Canis lupus familiaris; set-up: dose 25 mg/kg, route oral; settings: plasma
[18] = Oral bioavailability in monkey at 5 mg/kg; format: ADME, organism-based, Macaca mulatta; settings: rhesus monkey, in vivo
[19] = Ratio of IC50 for […] NIH-H cells to IC50 for FTase (unknown origin)
[20] = AUC (0 to 6 hrs) in rat at 10 mg/kg; format: ADME, organism-based; set-up: time < 6 hr, dose 10 mg/kg; settings: plasma

SMILES | IC50 (NIH-H) [nM] | IC50 [1] [nM] | other results
Cn1cncc1[C@](C)(O)C1=Cc2cccnc2[C@@H](N2CCN(C(=O)NC3CCCCC3)CC2)c2ccc(Cl)cc21 | 1.7 | 0.4 | –
Cn1cncc1[C@@](C)(O)C1=Cc2cccnc2[C@@H](N2CCN(C(=O)OC3CCCC3)CC2)c2ccc(Cl)cc21 | 2 | 0.6 | –
Cn1cncc1[C@@](C)(O)C1=Cc2cccnc2[C@@H](N2CCN(C(=O)NC3CCCCC3)CC2)c2ccc(Cl)cc21 | 0.9 | 0.1 | –
Cn1cncc1[C@](C)(O)C1=Cc2cccnc2[C@@H](N2CCN(C(N)=O)CC2)c2ccc(Cl)cc21 | > 100 | > 20 | –
Cn1cncc1C(=O)[C@]12C[C@H]1c1cccnc1[C@@H](N1CCN(C(=O)OC(C)(C)C)CC1)c1ccc(Cl)cc12 | 6 | 3.2 | –
Cn1cncc1[C@@](C)(O)C1=Cc2cccnc2[C@@H](N2CCN(C(=O)OC3(C)CCCCC3)CC2)c2ccc(Cl)cc21 | 2 | 5.5 | –
CC(C)OC(=O)N1CCN([C@H]2c3ccc(Cl)cc3C([C@@](C)(O)c3cncn3C)=Cc3cccnc32)CC1 | 10 | 0.6 | –
Cn1cncc1[C@@](C)(O)C1=Cc2cccnc2[C@@H](N2CCN(C(=O)OC(C)(C)C)CC2)c2ccc(Cl)cc21 | 1.3 | 1.4 | AUC [2]: 3.2 µM·h; TGI (Mus musculus [3]): Active; IC50 (Cytochrome P450 3A4): 300 nM; bioavailability [4]: 34%; Activity (Mus musculus [5]): Dose-dependent effect; AUC [6]: 82 µM·h; Activity (Mus musculus [7]): Non-toxic; Activity (Mus musculus [8]): Active; Cmax [9]: 700 nM; Cmax [10]: 600 nM; Activity (Mus musculus [11]): Active; bioavailability [12]: 34%; AUC [13]: 8.4 µM·h; bioavailability [14]: 34%; Cmax [15]: 1500 nM; Cmax [16]: 18000 nM; AUC [17]: 1.8 µM·h; bioavailability [18]: 34%
Cn1cncc1C(C)(O)[C@]12C[C@H]1c1cccnc1[C@@H](N1CCN(C(=O)OC(C)(C)C)CC1)c1ccc(Cl)cc12 (stereo partly specified) | > 100 | > 18 | –
Cn1cncc1[C@](C)(O)C1=Cc2cccnc2[C@@H](N2CCN(C(=O)NC(C)(C)C)CC2)c2ccc(Cl)cc21 | 37 | 0.7 | –
Cn1cncc1C(=O)[C@@]12C[C@@H]1c1cccnc1[C@@H](N1CCN(C(=O)OC(C)(C)C)CC1)c1ccc(Cl)cc12 | 8 | 3.2 | –
Cn1cncc1C(C)(O)[C@@]12C[C@@H]1c1cccnc1[C@@H](N1CCN(C(=O)OC(C)(C)C)CC1)c1ccc(Cl)cc12 (stereo partly specified) | 60 | 1.9 | Ratio IC50 [19]: >30
Cn1cncc1[C@@](C)(O)C1=Cc2cccnc2[C@@H](N2CCN(C(=O)Nc3ccc(C#N)cc3)CC2)c2ccc(Cl)cc21 | 2 | 0.8 | –
CCC(O)(C1=Cc2cccnc2[C@@H](N2CCN(C(=O)OC(C)(C)C)CC2)c2ccc(Cl)cc21)c1cncn1C (mixture of isomers) | 50 | 5 | –
Cn1cncc1[C@@](C)(O)C1=Cc2cccnc2[C@@H](N2CCN(C(=O)NC(C)(C)C)CC2)c2ccc(Cl)cc21 | 5 | 0.9 | –
Cn1cncc1C(=O)C1=Cc2cccnc2[C@@H](N2CCN(C(=O)OC(C)(C)C)CC2)c2ccc(Cl)cc21 | – | > 18 | –
Cn1cncc1[C@](C)(O)C1=Cc2cccnc2[C@@H](N2CCN(C(=O)Nc3ccc(C#N)cc3)CC2)c2ccc(Cl)cc21 | 4 | 1.8 | –
Cn1cncc1[C@](C)(O)C1=Cc2cccnc2[C@@H](N2CCN(C(=O)OC3CCCCC3)CC2)c2ccc(Cl)cc21 | 6.2 | 1.4 | –
Cn1cncc1C(C)(O)C1=Cc2cccnc2[C@@H](N2CCN(C(=O)OC(C)(C)C)CC2)c2ccc(Cl)cc21 (mixture of isomers) | 10 | 1.8 | –
Cn1cncc1[C@@H](O)C1=Cc2cccnc2[C@@H](N2CCN(C(=O)OC(C)(C)C)CC2)c2ccc(Cl)cc21 | – | 12 | –
Cn1cncc1[C@H](O)C1=Cc2cccnc2[C@@H](N2CCN(C(=O)OC(C)(C)C)CC2)c2ccc(Cl)cc21 | 0.5 | 0.3 | –
Cn1cncc1[C@](C)(O)C1=Cc2cccnc2[C@@H](N2CCN(C(=O)OC3(C)CCCCC3)CC2)c2ccc(Cl)cc21 | 45 | – | –
Cn1cncc1[C@](C)(O)C1=Cc2cccnc2[C@@H](N2CCN(C(=O)OC(C)(C)C)CC2)c2ccc(Cl)cc21 | 30 | 2.6 | AUC(0-t) at 6 h [20]: 3.1 µM·h
Cn1cncc1[C@@](C)(O)C1=Cc2cccnc2[C@@H](N2CCN(C(=O)OC3CCCCC3)CC2)c2ccc(Cl)cc21 | 3.5 | 1.7 | –
Cn1cncc1[C@](C)(O)C1=Cc2cccnc2[C@@H](N2CCN(C(=O)OC3CCCC3)CC2)c2ccc(Cl)cc21 | 32 | 0.6 | –
CC(C)OC(=O)N1CCN([C@H]2c3ccc(Cl)cc3C([C@](C)(O)c3cncn3C)=Cc3cccnc32)CC1 | 2 | 0.2 | –
Cn1cncc1[C@@](C)(O)C1=Cc2cccnc2[C@@H](N2CCN(C(N)=O)CC2)c2ccc(Cl)cc21 | > 100 | 0.1 | –
